Measured values: patent EP1561465A2, “Methods of use of fluoroquinolone compounds against bacteria” (LG Life Sciences, Ltd., priority 1999, dated 2001)
In brackets after ≈: the same amount, converted by molar mass. Like-named read-outs stand apart in the source and are kept apart here.

Columns and labels:
[1] = system: Salmonella spp.; assay: MIC by agar dilution (NCCLS M7-A4), 288 enteropathogenic isolates, gemifloxacin and 15 other antimicrobials; format: cell-based
[2] = system: Moraxella catarrhalis; assay: MIC by two-fold serial agar dilution, Sensitivity Disk agar-N (Kitasato isolates); format: cell-based; conditions: Moraxella catarrhalis (22)
[3] = system: Haemophilus influenzae; assay: MIC by agar dilution (NCCLS), 411 isolates Buenos Aires 1998-99; format: cell-based; conditions: Haemophilus influenzae (n = 65)
[4] = system: Enterococcus faecalis; assay: as above; format: cell-based; conditions: Enterococcus faecalis (n = 48)
[5] = system: Staphylococcus aureus; assay: MIC by NCCLS reference broth microdilution, 450 respiratory tract pathogens; format: cell-based
[6] = system: Enterococcus faecium; assay: MIC by agar macrodilution (NCCLS), 373 Gram positive isolates, Athens 1998; format: cell-based
[7] = system: Shigella spp.; assay: MIC by NCCLS broth microdilution, 1100 Japanese clinical isolates 1997-1998; format: cell-based; conditions: Shigella spp. (n=34)
[8] = system: Campylobacter jejuni; assay: MIC by agar dilution (NCCLS M7-A4), 288 enteropathogenic isolates, gemifloxacin and 15 other antimicrobials; conditions: for MIC: Campylobacter jejuni
[9] = system: Streptococcus pneumoniae; assay: MIC by NCCLS broth microdilution, 1100 Japanese clinical isolates 1997-1998; format: cell-based; conditions: for MIC: Streptococcus pneumoniae quinolone resistant
[10] = system: P. aeruginosa; assay: MIC by two-fold serial agar dilution, quinolone-resistant strains; format: cell-based; conditions: Pseudomonas aeruginosa
[11] = β-lactamase positive and erythromycin resistant (n = 10)
[12] = Streptococcus pneumoniae erythromycin resistant (n=34)
[13] = Streptococcus pneumoniae erythromycin susceptible (n=11)

Question: How did the MIC ([1]; S. newport(1), isolate with MIC for ciprofloxacin ≥[…], read-out: MIC) turn out when `N[C@@H]1[C@H]2CN(c3nc4c(cc3F)c(=O)c(C(=O)O)cn4-c3ccc(F)cc3F)C[C@@H]12` [Trovafloxacin, trovafloxacin] was run?
Answer: 0.5 mg/L (≈ 1.2 µM)

Question: What about the MIC ([1]; S. virchow(2), isolates with MICs for ciprofloxacin ≥[…], read-out: MIC) of the same molecule?
Answer: 0.25 mg/L (≈ 0.6 µM)

Question: And the “MIC (mg/L) Range” value ([1]; Salmonella spp. N= 106)?
Answer: ≤0.015 to 1 mg/L

Question: What about the MIC ([1]; Salmonella, S. tshiongwe(1), isolate with MIC for ciprofloxacin ≥[…], read-out: MIC) of the same molecule?
Answer: 1 mg/L (≈ 2.4 µM)

Question: What about the MIC ([1]; Salmonella, read-out: MIC (mg/L) 50%, Salmonella spp. N= 106) of the same molecule?
Answer: 0.06 mg/L (≈ 0.144 µM)

Question: What about the MIC ([1]; Salmonella, read-out: MIC (mg/L) 90%, Salmonella spp. N= 106) of the same molecule?
Answer: 0.25 mg/L (≈ 0.6 µM)

Question: And the MIC50 [2]?
Answer: 0.016 µg/mL (≈ 0.0384 µM)

Question: What about the MIC90 [2] of the same molecule?
Answer: 0.031 µg/mL (≈ 0.0745 µM)

Question: And the “MIC Range” value [2]?
Answer: 0.016 to 0.031 µg/mL

Question: And the MIC90 [3]?
Answer: 0.03 µg/mL (≈ 0.0721 µM)

Question: And the “MIC Range” value [3]?
Answer: ≤0.004 to 0.5 µg/mL

Question: And the MIC90 [4]?
Answer: 8 µg/mL (≈ 19.2 µM)

Question: What about the “MIC Range” value [4] of the same molecule?
Answer: ≤0.004 to 16 µg/mL

Question: And the MIC ([5]; Staphylococcus aureus (n = 50))?
Answer: 0.00375 to 0.5 µg/mL (≈ 0.00901 to 1.2 µM)

Question: What about the MIC50 ([5]; Staphylococcus aureus (n = 50)) of the same molecule?
Answer: 0.12 µg/mL (≈ 0.288 µM)

Question: What about the MIC90 ([5]; Staphylococcus aureus (n = 50)) of the same molecule?
Answer: 0.25 µg/mL (≈ 0.6 µM)

Question: What about the MIC ([5]; β-lactamase negative (n = 20)) of the same molecule?
Answer: 0.00375 to 0.25 µg/mL (≈ 0.00901 to 0.6 µM)

Question: What about the MIC50 ([5]; β-lactamase negative (n = 20)) of the same molecule?
Answer: 0.12 µg/mL (≈ 0.288 µM)

Question: What about the MIC90 ([5]; β-lactamase negative (n = 20)) of the same molecule?
Answer: 0.25 µg/mL (≈ 0.6 µM)

Question: And the MIC ([5]; β-lactamase positive (n = 20))?
Answer: 0.06 to 0.5 µg/mL (≈ 0.144 to 1.2 µM)

Question: And the MIC50 ([5]; β-lactamase positive (n = 20))?
Answer: 0.12 µg/mL (≈ 0.288 µM)

Question: What about the MIC90 ([5]; β-lactamase positive (n = 20)) of the same molecule?
Answer: 0.25 µg/mL (≈ 0.6 µM)

Question: And the MIC [5, 11]?
Answer: 0.00375 to 0.25 µg/mL (≈ 0.00901 to 0.6 µM)

Question: What about the MIC50 [5, 11] of the same molecule?
Answer: 0.12 µg/mL (≈ 0.288 µM)

Question: And the MIC90 [5, 11]?
Answer: 0.25 µg/mL (≈ 0.6 µM)

Question: What about the “MIC distribution (µg/ml) 0.03” value [6] of the same molecule?
Answer: 0

Question: And the “MIC distribution (µg/ml) 0.06” value [6]?
Answer: 0

Question: What about the “MIC distribution (µg/ml) 0.125” value [6] of the same molecule?
Answer: 0

Question: What about the “MIC distribution (µg/ml) 0.25” value [6] of the same molecule?
Answer: 1

Question: And the “MIC distribution (µg/ml) 0.5” value [6]?
Answer: 6

Question: What about the “MIC distribution (µg/ml) 1” value [6] of the same molecule?
Answer: 2

Question: And the “MIC distribution (µg/ml) 2” value [6]?
Answer: 0

Question: What about the “MIC distribution (µg/ml) 4” value [6] of the same molecule?
Answer: 0

Question: What about the “MIC distribution (µg/ml) 8” value [6] of the same molecule?
Answer: 1

Question: What about the “MIC distribution (µg/ml) 16” value [6] of the same molecule?
Answer: 0

Question: And the “MIC distribution (µg/ml) ≤0.015” value [6]?
Answer: 0

Question: And the “MIC distribution (µg/ml) ≥32” value [6]?
Answer: 4

Question: What about the MIC50 ([6]; Enterococcus faecium, n = 14 isolates, read-out: MIC50) of the same molecule?
Answer: 0.5 µg/mL (≈ 1.2 µM)

Question: What about the MIC90 ([6]; Enterococcus faecium, n = 14 isolates, read-out: MIC90) of the same molecule?
Answer: ≥ 32 µg/mL

Question: And the MIC50 [7]?
Answer: ≤ 0.008 µg/mL

Question: And the MIC90 [7]?
Answer: 0.032 µg/mL (≈ 0.0769 µM)

Question: And the “MIC Range” value [7]?
Answer: ≤0.008 to 0.032 µg/mL

Question: What about the “MIC (mg/L) Range” value ([8]; Campylobacter jejuni N= 91) of the same molecule?
Answer: ≤0.015 to 32 mg/L

Question: And the MIC ([8]; read-out: MIC (mg/L) 50%)?
Answer: 8 mg/L (≈ 19.2 µM)

Question: And the MIC ([8]; read-out: MIC (mg/L) 90%)?
Answer: 8 mg/L (≈ 19.2 µM)

Question: And the MIC50 ([9]; Streptococcus pneumoniae)?
Answer: 0.125 µg/mL (≈ 0.3 µM)

Question: And the MIC90 ([9]; Streptococcus pneumoniae)?
Answer: 0.125 µg/mL (≈ 0.3 µM)

Question: And the “MIC Range” value ([9]; Streptococcus pneumoniae amoxicillin resistant (n=40))?
Answer: 0.063 to 1 µg/mL

Question: What about the “MIC Range” value ([9]; Streptococcus pneumoniae amoxicillin susceptible (n=35)) of the same molecule?
Answer: 0.063 to 1 µg/mL

Question: What about the MIC90 [9, 12] of the same molecule?
Answer: 0.125 µg/mL (≈ 0.3 µM)

Question: And the “MIC Range” value [9, 12]?
Answer: 0.063 to 1 µg/mL

Question: And the MIC90 [9, 13]?
Answer: 0.125 µg/mL (≈ 0.3 µM)

Question: And the “MIC Range” value [9, 13]?
Answer: 0.063 to 0.125 µg/mL

Question: What about the MIC50 ([9]; Streptococcus pneumoniae, Streptococcus pneumoniae amoxicillin resistant (n=40), read-out: MIC50) of the same molecule?
Answer: 0.063 µg/mL (≈ 0.151 µM)

Question: And the MIC50 ([9]; Streptococcus pneumoniae, Streptococcus pneumoniae amoxicillin susceptible (n=35), read-out: MIC50)?
Answer: 0.063 µg/mL (≈ 0.151 µM)

Question: And the MIC90 ([9]; Streptococcus pneumoniae, Streptococcus pneumoniae amoxicillin susceptible (n=35), read-out: MIC90)?
Answer: 0.25 µg/mL (≈ 0.6 µM)

Question: What about the MIC50 ([9]; Streptococcus pneumoniae, Streptococcus pneumoniae erythromycin resistant (n=34), read-out: MIC50) of the same molecule?
Answer: 0.063 µg/mL (≈ 0.151 µM)

Question: What about the MIC ([9]; Streptococcus pneumoniae, strain TMS1) of the same molecule?
Answer: 0.25 µg/mL (≈ 0.6 µM)

Question: What about the MIC ([9]; Streptococcus pneumoniae, strain TMS2) of the same molecule?
Answer: 1 µg/mL (≈ 2.4 µM)

Question: What about the MIC [10] of the same molecule?
Answer: 1 µg/mL (≈ 2.4 µM)
